# Reference: ChEMBL document CHEMBL1201862, “PubChem BioAssay data set” (2004)
# Calls of active or inactive are those of the source. For most assays here, no stated cut-off is given here; in the data, actives have a measured EC50 and inactives only a lower limit.
# How the values were obtained:
# [1] = target: T1, Calpain-2 catalytic subunit (Sus scrofa, UniProt P43367); assay: pig calpain II inhibitor potency, dose response, biochemical, fluorogenic peptide substrate (AID 1420); format: functional
# T1 sequence (P43367 whole entry): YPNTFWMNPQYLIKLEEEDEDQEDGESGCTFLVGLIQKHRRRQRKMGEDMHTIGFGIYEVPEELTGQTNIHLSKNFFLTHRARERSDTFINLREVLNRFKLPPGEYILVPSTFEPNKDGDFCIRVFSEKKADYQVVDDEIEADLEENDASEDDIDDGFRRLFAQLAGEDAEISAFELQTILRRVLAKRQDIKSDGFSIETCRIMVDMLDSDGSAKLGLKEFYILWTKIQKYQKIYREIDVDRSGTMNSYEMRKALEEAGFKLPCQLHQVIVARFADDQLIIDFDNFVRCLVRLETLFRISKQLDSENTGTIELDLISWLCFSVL
# BJ [2] = assay: cytotoxicity toward BJ-TERT fibroblasts, dose response, cell-based, RAS-independent, luminescence (AID 1933); format: functional; settings: Homo sapiens
# BJ [3] = assay: cells; format: functional, cell-based; settings: Homo sapiens
# BJ [4] = assay: cytotoxicity toward BJ-TERT-LT-ST fibroblasts, dose response, cell-based, RAS-independent, luminescence (AID 1935); format: functional; settings: Homo sapiens;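 further: BJ fibroblasts immortalized with TERT plus LT and ST oncogenes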
# [5] = cytotoxicity toward DRD oncogenic fibroblasts, dose response, cell-based, non-viral oncogenic, luminescence (AID 1934); format: functional; settings: Homo sapiens
# H9c2 = assay: cells; format: functional, cell-based; settings: Rattus norvegicus, H9c2, Myocardium;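 further: confirmatory concentration-response retest of ultra-high-throughput screening hits for modulation of myocardial damage; cell death induced by hydrogen peroxide oxidative stress; compound pretreatment for 60 min then peroxide exposure for 2 h; potency is for protecting the cells against peroxide damage rather than for killing them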
# [6] = target: Luciferin 4-monooxygenase (Photinus pyralis, UniProt P08659); assay: firefly luciferase enzyme inhibitors, dose response, biochemical, luminescence (AID 1891)
# Chain of Luciferin 4-monooxygenase (P08659 whole entry): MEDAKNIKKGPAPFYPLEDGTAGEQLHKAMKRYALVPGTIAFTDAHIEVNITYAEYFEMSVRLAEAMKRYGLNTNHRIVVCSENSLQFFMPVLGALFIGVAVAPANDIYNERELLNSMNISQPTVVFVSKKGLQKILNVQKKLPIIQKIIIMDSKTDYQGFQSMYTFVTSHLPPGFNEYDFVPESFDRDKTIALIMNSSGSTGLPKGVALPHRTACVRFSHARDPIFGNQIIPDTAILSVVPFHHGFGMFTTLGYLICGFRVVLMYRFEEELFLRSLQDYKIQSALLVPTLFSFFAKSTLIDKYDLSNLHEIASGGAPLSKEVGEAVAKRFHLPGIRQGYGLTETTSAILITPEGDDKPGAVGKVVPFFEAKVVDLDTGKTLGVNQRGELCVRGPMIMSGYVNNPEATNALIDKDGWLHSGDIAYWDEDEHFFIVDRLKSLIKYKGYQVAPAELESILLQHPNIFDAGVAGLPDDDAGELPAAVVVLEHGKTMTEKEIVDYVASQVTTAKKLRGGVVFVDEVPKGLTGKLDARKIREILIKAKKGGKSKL
# [7] = Luminescence Cell-Based Dose Confirmation HTS to Identify Inhibitors of Platelet Dense Granule Release. [Related pubchem assays: 1663 (Primary HTS), 1678 (Summary of Project)]; format: functional
# [8] = target: T2, Replicative DNA helicase DnaB (Mycobacterium tuberculosis, UniProt P9WMR3); assay: DnaB intein splicing inhibitors, dose response, biochemical, cell-free fluorescence (AID 449749); format: functional
# T2 sequence (P9WMR3 whole entry): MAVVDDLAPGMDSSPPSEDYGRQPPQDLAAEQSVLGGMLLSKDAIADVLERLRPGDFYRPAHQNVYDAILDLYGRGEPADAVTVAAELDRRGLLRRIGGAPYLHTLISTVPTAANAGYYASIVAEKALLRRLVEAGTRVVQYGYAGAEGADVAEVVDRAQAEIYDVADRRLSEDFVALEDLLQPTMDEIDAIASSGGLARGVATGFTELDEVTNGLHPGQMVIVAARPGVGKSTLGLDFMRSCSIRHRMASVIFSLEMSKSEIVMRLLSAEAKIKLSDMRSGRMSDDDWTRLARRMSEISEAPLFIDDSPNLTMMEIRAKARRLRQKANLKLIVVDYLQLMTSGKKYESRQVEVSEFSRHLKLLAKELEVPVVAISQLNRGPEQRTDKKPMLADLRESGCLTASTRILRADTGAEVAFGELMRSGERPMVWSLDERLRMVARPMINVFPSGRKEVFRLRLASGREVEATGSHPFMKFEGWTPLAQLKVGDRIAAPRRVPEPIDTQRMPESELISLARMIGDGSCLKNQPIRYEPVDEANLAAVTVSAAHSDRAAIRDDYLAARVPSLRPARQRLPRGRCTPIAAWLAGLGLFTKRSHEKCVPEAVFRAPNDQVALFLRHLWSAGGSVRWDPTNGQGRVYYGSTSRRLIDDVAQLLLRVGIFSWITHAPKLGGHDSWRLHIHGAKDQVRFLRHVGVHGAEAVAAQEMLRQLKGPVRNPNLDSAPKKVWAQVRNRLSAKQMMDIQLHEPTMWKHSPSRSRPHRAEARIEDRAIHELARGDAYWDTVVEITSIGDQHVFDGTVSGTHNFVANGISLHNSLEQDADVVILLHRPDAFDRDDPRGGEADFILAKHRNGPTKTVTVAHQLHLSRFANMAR
# Protein RecA = target: T3, Protein RecA (Mycobacterium tuberculosis, UniProt P9WHJ3); assay: Fluorescence Cell-Free Homogeneous Dose Retest to Identify Inhibitors of RecA-Intein Splicing Activity. [Related pubchem assays (depositor defined):AID2097, AID2223, AID489010, AID492950]; format: functional
# T3 sequence (P9WHJ3 whole entry): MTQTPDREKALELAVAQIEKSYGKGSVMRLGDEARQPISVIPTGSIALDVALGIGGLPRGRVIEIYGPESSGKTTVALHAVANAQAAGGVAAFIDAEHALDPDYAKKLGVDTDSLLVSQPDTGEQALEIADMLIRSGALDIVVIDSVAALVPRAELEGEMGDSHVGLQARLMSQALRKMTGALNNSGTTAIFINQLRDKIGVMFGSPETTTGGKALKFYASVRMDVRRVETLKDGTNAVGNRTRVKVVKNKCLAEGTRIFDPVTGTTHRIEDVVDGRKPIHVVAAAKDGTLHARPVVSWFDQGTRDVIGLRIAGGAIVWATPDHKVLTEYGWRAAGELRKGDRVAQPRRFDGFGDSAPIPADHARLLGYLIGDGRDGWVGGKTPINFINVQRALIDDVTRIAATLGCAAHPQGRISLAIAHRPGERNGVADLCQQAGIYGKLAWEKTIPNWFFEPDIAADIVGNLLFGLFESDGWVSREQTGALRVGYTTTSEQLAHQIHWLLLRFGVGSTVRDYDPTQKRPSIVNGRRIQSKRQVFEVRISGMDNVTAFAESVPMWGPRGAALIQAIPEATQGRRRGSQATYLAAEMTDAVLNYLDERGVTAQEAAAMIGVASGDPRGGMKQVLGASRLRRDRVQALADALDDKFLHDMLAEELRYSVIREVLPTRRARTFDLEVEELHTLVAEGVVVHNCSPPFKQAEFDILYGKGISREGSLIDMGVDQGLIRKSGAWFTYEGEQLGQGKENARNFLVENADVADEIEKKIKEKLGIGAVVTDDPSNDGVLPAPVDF
# [9] = inhibitors of firefly luciferase expression or activity, dose response, H4 neuroglioma cells, luminescence (AID 1990); format: functional, cell-based
# [10] = Luminescence Cell-Based Dose Response HTS to Identify Inhibitors of 5'UTR Stem-Loop Driven Prion Protein mRNA Translation in H4 Neuroglioblastoma Cells. [Related pubchem assays: 1827 (Project Summary), 1813 (Primary HTS)]; format: functional
# [11] = inhibitors of SNCA 5'UTR-driven reporter translation, confirmation, H4 neuroglioma cells, luminescence (AID 1988); format: functional, cell-based
# INS1 = assay: beta cell apoptosis inhibitors, cytokine rescue, dose response, luminescence, retest (AID 449756); format: functional, cell-based; settings: Rattus norvegicus;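 further: cell death triggered by IL-1 beta plus TNF-alpha plus IFN-gamma mixture; protective hits raise ATP signal compared with cytokine alone wells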
# [12] = target: T4, Rac GTPase-activating protein 1 (Homo sapiens, UniProt Q9H0H5); assay: MgcRacGAP GTPase-activating activity inhibitors, confirmation, biochemical, ADP Hunter fluorescence, primary and confirmatory (AID 624330); format: functional
# T4 sequence (Q9H0H5 whole entry): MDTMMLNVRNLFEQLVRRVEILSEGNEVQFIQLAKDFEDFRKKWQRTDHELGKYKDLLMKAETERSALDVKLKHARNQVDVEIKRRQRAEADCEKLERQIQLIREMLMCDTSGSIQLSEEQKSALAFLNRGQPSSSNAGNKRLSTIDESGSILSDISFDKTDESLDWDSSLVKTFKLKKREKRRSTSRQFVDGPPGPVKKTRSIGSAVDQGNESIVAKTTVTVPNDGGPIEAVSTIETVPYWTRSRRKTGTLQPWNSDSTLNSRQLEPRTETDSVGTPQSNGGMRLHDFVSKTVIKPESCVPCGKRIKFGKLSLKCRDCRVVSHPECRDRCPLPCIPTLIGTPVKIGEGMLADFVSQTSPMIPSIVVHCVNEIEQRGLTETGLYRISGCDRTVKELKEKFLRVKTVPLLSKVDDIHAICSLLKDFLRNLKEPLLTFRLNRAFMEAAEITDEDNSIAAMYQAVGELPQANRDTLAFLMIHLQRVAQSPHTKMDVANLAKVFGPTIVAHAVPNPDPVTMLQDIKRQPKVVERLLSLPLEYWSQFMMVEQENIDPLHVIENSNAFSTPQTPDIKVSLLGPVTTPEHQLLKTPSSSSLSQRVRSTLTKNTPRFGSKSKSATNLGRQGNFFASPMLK
# [13] = inhibitors of intracellular T. cruzi replication, confirmation, NIH3T3 host cells, beta-gal luminescence (AID 2044); format: functional, cell-based;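 further: intracellular parasites grown in NIH/3T3 mouse fibroblasts as host cells; luminescent beta-galactosidase reporter signal from transgenic T. cruzi replicating inside host cells; inhibitors lower the luminescence signal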
# [14] = cytotoxicity toward NIH3T3 fibroblasts, dose response, counter-screen, cell-based, ATP luminescence, mouse fibroblasts (AID 2010); format: functional;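 further: cells exposed to compound for about 90 hours before reading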
compound,measurement,setting,value
COc1cccc(NC(=O)N(C2CCCCC2)C(C)c2cccs2)c1 (stereo not given),IC50,[1],8.59 µM (not active)
Cc1nc2sc3c(c2c(=O)n1NC(=O)CCl)CCCC3,EC50,BJ [2],30.8 µM (active)
same,EC50,BJ [3],> 150 µM (not active)
same,EC50,BJ [4],> 150 µM (inconclusive)
same,EC50,[5],> 150 µM (not active)
Cc1cc(NC(=O)COc2nnc(-c3ccccc3)c3ccccc23)no1,IC50,H9c2,32.3 µM (inactive)
Cn1c2ccc(F)cc2c2nnc(NN)nc21,IC50,H9c2,> 79 µM (inactive)
Cc1ccc(CN(C)C(=O)COC(=O)CSc2ccc(C(N)=O)cc2[N+](=O)[O-])cc1,IC50,H9c2,> 79 µM (inactive)
c1csc(-c2nn3c(Cn4nnc5ccccc54)nnc3s2)c1,EC50,[6],> 112 µM (not active)
same,EC50,[7],> 112 µM (not active)
COc1ccc(OCC(=O)NCc2nnc(O)c3ccccc23)cc1,IC50,H9c2,> 79 µM (inactive)
COc1cccc(OCCNC(=O)c2cccc(OC)c2)c1,EC50,[6],> 112 µM (not active)
same,EC50,[7],> 112 µM (not active)
Cc1nn(-c2ccccc2)c2c1C(c1ccccc1)C(C#N)=C(N)O2 (stereo not given),AC50,[8],16.8 µM (active)
same,EC50,Protein RecA,9.07 µM (active)
CCOC(=O)Cc1n[nH]c2c1C(c1cc(OC)ccc1OC)C(C#N)=C(N)O2 (stereo not given),AC50,[8],73.9 µM (active)
same,EC50,Protein RecA,13.3 µM (active)
CCN(C(=O)COC(=O)c1cc(-c2cccs2)nc2ccccc12)C1CCS(=O)(=O)C1 (stereo not given),EC50,[6],> 112 µM (not active)
same,EC50,[7],> 112 µM (not active)
O=C(NNC(=O)c1cc(OCC(F)(F)F)ccc1OCC(F)(F)F)c1ccc(Cl)c(Cl)c1,IC50,[1],6.1 µM (not active)
CCn1nc(C(=O)OCC(=O)c2c[nH]c3ccccc23)c2ccccc2c1=O,IC50,[1],3.99 µM (not active)
same,IC50,H9c2,> 79 µM (inactive)
CCOc1ccc(C(C(=O)NC2CCCC2)N(C(=O)c2snc(C(N)=O)c2N)c2cccc(O)c2)cc1 (stereo not given),IC50,H9c2,> 79 µM (inactive)
O=c1c2c(-c3cccs3)csc2ncn1-n1cccc1,IC50,[1],> 50 µM (not active)
Cc1ccc(NC(=O)CNC(=O)c2ccccc2F)cc1Cl,IC50,[1],37.6 µM (not active)
O=C(NCc1ccccc1)C1=C[C@@H](c2csc3ccccc23)C[C@@H](OCCCCO)O1,EC50,[9],11.2 µM (active)
same,EC50,BJ [2],22.8 µM (inconclusive)
same,EC50,[10],10.5 µM (active)
same,EC50,[11],9.75 µM (active)
same,EC50,BJ [3],35.8 µM (active)
same,EC50,BJ [4],> 150 µM (not active)
same,EC50,[5],28.4 µM (active)
same,AC50,INS1,1.43 µM (active)
N#CCCSc1ccccc1NC(=O)c1cc(=O)c2ccccc2o1,IC50,H9c2,19.3 µM (active)
COc1ccc(N2CCN(C(=O)Cn3cnc4c(cnn4-c4ccccc4)c3=O)CC2)cc1,IC50,[1],4.18 µM (not active)
COC(=O)CC1=NN(c2ccc(OC)cc2)C(=O)C1,AC50,[8],54.9 µM (active)
same,EC50,Protein RecA,13.1 µM (active)
Cc1ccc(NC(=O)c2cc(S(=O)(=O)N3CCOCC3)cn2C)c(C)c1,EC50,[6],> 112 µM (not active)
same,EC50,[7],> 112 µM (not active)
CCOc1ccc(N(CC(=O)Nc2cccc(OC)c2)S(=O)(=O)c2c(C)noc2C)cc1,IC50,[1],5.86 µM (not active)
O=C(CCc1nc(O)c2ccccc2n1)Nc1ccc(Cl)c(Cl)c1,IC50,H9c2,15.4 µM (active)
CCOc1cc(NC(=O)C2CC2)c(OCC)cc1NC(=O)c1ccccn1,IC50,H9c2,12.6 µM (active)
Oc1ccc(Br)cc1/C=N/c1ccc2c3c(cccc13)CC2,IC50,H9c2,> 79 µM (inactive)
same,IC50,[12],33.5 µM (active)
CC(=O)Nc1ccc(NC(=O)Cn2nc([N+](=O)[O-])c(Br)c2C)cc1,IC50,[1],11.6 µM (not active)
O=[N+]([O-])c1c(O)nc(O)nc1/C=C/c1cccnc1,AC50,[8],> 380 µM (inactive)
same,EC50,Protein RecA,> 380 µM (inactive)
O=CNc1cc(-c2ccc(C(=O)NC3CC3)cc2)cn2c(-c3ccccc3)cnc12,IC50,H9c2,> 79 µM (inactive)
CCn1c(SCC(=O)N2CCCC(C)C2)nnc1-c1ccco1 (stereo not given),EC50,[6],> 112 µM (not active)
same,EC50,[7],> 112 µM (not active)
COC(=O)C(Cc1ccc(O)cc1)NC(=O)C12CC3CC(CC(C3)C1)C2 (stereo not given),EC50,[6],> 112 µM (not active)
same,EC50,[7],17.2 µM (active)
Cc1ccc(Nc2c([N+](=O)[O-])nn(-c3ccc4c(c3)OCCO4)[n+]2[O-])c(Cl)c1,EC50,[13],0.199 µM (active)
same,IC50,[1],23.1 µM (not active)
same,EC50,[14],> 60 µM (not active)
CCCCc1c(O)nc(SCC(=O)N2CCOCC2)nc1O,EC50,[6],> 112 µM (not active)
same,EC50,[7],> 112 µM (not active)
Cc1nn(C)c(Oc2ccccc2)c1CCNC(=O)CCl,EC50,BJ [2],28.9 µM (active)
same,EC50,BJ [3],> 150 µM (not active)
same,EC50,BJ [4],> 150 µM (not active)
same,EC50,[5],> 150 µM (not active)
N#Cc1cc2c(nc1SCC(=O)Nc1sc3c(c1C#N)CCC3)CCC2,EC50,BJ [2],98.7 µM (active)
same,EC50,BJ [3],> 150 µM (not active)
same,EC50,BJ [4],> 75 µM (not active)
same,EC50,[5],32.8 µM (active)
